Measurements from US20230398194A1 (priority 2016, published 2023).

B1: P2A: carbapenemase, beta-lactamase polypeptide of SEQ ID NO: 6 (protein)
chain: ETGTISISQLNKNVWVHTELGYFNGEAVPSNGLVLNTSKGLVLVDSSWDNKLTKELIEMVEKKFQKRVTDVIITHAHADRIGGITALKERGIKAHSTALTAELAKNSGYEEPLGDLQTITSLKFGNTKVETFYPGKGHTEDNIVVWLPQYQILAGGCLVKSAEAKDLGNVADAYVNEWSTSIENVLKRYGNINSVVPGHGEVGDKGLLLHTLDLLK

Tests used:
[1] = system: porcine gut microbiome; experiment: Piglet gut microbiome study: fecal resistome by whole genome shotgun metagenomics, ceftriaxone with or without SYN-004 (ribaxamase); format: in vivo, pig; details: for blaOXA genes (extended spectrum OXA class D beta-lactamases), level in fecal microbiome / change in the mean of relative gene frequencies of acrE, baeR, emrY, mdtD, mdtN, pbp2, pbp4, AmpC (FIG. 3) / mdtD gene levels / AmpC gene frequencies / Aminoglycoside_strA gene level (FIG. 4A) / Tetracycline_tet39 gene level (FIG. 4B): CRO alone vs CRO+ribaxamase; for blaOXA genes (extended spectrum OXA class D beta-lactamases), level in fecal microbiome: 5 piglets per cohort; for AmpC gene frequencies: by Day 4, after an increase from Day −7 to Day −4 in both cohorts; for abundance of antibiotic resistance genes in the porcine gut microbiome (overall conclusion): ceftriaxone treatment alone vs with SYN-004 (ribaxamase); for Aminoglycoside_strA gene level (FIG. 4A) / Tetracycline_tet39 gene level (FIG. 4B): day 4 after antibiotic treatment, 5 animals per cohort
Procedure: See Table 2 and FIG. 1 for study design and timeline. Animals were acclimated for 14 days prior to study initiation. Ceftriaxone (CRO) was administered daily for 7 days and animals that received SYN-004 (ribaxamase) starting the day before antibiotic treatment for 9 consecutive days. Feces were collected on Study Days −7, −4, 4, and 8. Fecal DNA was isolated and subjected to whole genome shotgun metagenomics analyses. The community resistome, the collection of antibiotic resistance genes in the microbiome, was identified by comparison to a curated antibiotic resistance gene database.
Two groups of 5 normal piglets each were used in this study. Group 1 animals were treated with ceftriaxone (IV, 1× per day, 50 mg/kg) for 7 consecutive days and Group 2 animals received ceftriaxone (IV, 1× per day, 50 mg/kg) for 7 consecutive days and SYN-004 (ribaxamase, orally, 4× per day, 75 mg/dose) for 9 consecutive days starting the day before ceftriaxone delivery.
Normal piglets (2 months old, approximately 50 lbs) were acclimated for 14 days prior to study initiation. Two cohorts of 5 animals each were used for this study, Group 1 received ceftriaxone alone and Group 2 received ceftriaxone and SYN-004 (ribaxamase), as indicated in Table 2. Stool was collected at 4 time points, two prior to treatment, at Study Days −7 and −4, and two during treatment at Study Day 4 and 8.
Total DNA was isolated from fecal specimens, using the MOBIO Power-Soil® DNA Isolation Kit (Qiagen, Germantown, MD), following the manufacturer's instructions. Each DNA sample was normalized in 3-18 uL of nuclease-free water for a final concentration of 0.5 ng/uL using the Biomek FX liquid handler (Beckman Coulter Life Sciences, Brea, CA). Libraries were constructed using the Nextera XT Library Prep Kit (illumine, San Diego, CA). For each sample, an input of 0.5 ng was used in the tagmentation reaction, followed by 13 cycles of PCR amplification using Nextera i7 and i5 index primers and 2× KAPA master mix per the modified Nextera XT protocol. The PCR products were purified using 1.0× speed beads and eluted in 15 ul of nuclease-free water. The final libraries were quantified by PicoGreen fluorometric assay (100× final dilution) and the concentrations were in the range of 0.1-4.0 ng/ul. The libraries were pooled, based on concentration determined by PicoGreen and loaded onto a high sensitivity (HS) chip run on the Caliper LabChipGX (Perkin Elmer, Waltham, MA). The base pair size reported was in the range of 301-680 bp. Each pool of 64 was run across 8 lanes of an Illumina HiSeq v3 flowcell, targeting 100 bp paired end reads per sample.
Briefly, raw, unassembled shotgun sequence reads were probed against the CosmosID, Inc. curated antibiotic resistance gene database.

[2] = system: canine gut microbiome; experiment: Canine fecal resistome analysis, oral amoxicillin with or without SYN-004; format: in vivo, dog; details: for abundance of antibiotic resistance genes in the canine gut microbiome (overall conclusion): oral amoxicillin exposure alone vs with SYN-004; for change in the mean of relative gene frequencies of selected resistance genes (FIG. 9): amoxicillin alone vs amoxicillin+SYN-004
Procedure: To determine if SYN-004 affected the abundance of antibiotic resistance genes, resistome analyses were performed.
Several genes were selected for further analysis. For each selected gene, the change in the mean of relative gene frequencies from pretreatment to post treatment was compared in the amoxicillin alone or the amoxicillin+SYN-004 cohorts (FIG. 9).

[3] = system: fecal microbiomes; details: for effect on microbiota populations in the GI tract (conclusion): oral amoxicillin alone vs with SYN-004; for position of post treatment fecal microbiomes in Principal Coordinate Analysis (Bray-Curtis, FIG. 7): post treatment vs pretreatment cluster, amoxicillin alone vs amoxicillin+SYN-004, 5 dogs per cohort
Procedure: The ability of a delayed-release formulation of SYN-004 (ribaxamase), to mitigate the propagation of antibiotic resistance genes caused by exposure of the gut microbiota to oral amoxicillin was evaluated in normal, seven month old female beagles. Animals were acclimated for 24 days prior to dosing initiation. Animals (n=10, 5 animals per cohort) received oral amoxicillin (40 mg/kg/dose, reconstituted in apple juice) three times a day+/−one capsule of SYN-004 (10 mg) for 5 days, with the last dose on the morning of day 6. The animals received 16 total doses of amoxicillin+/−SYN-004. Fecal samples were collected prior to antibiotic dosing and after the last dose. Blood was collected after the first antibiotic dose on day 1 and after the last dose on day 6. On each blood collection day, blood was collected from each animal at seven time points, 0.5, 1, 2, 3, 4, 6, and 8 hrs. Amoxicillin serum levels were measured using a validated liquid chromatography (LC) method with tandem mass spectrometry detection (LC/MS/MS). DNA isolated from fecal samples was subjected to whole genome shotgun sequencing and metagenomics analyses.
DNA isolated from the fecal samples was subjected to whole genome sequencing and analyzed using the CosmosID, Inc. bioinformatics software package. Analyses included identification of the microbiota species present in the fecal microbiomes and identification of antibiotic-resistance genes based on the percentage gene coverage for each gene and quantified by determining the frequency (%) of each gene in each sample.
To determine if SYN-004 protected the fecal microbiomes from damage caused by oral amoxicillin, the microbiome bacterial populations were compared using a three coordinate Principal Coordinate Analysis (CosmosID, Inc. bioinformatics software). Distance between points indicates degree of difference in sample diversity with points close together more similar.

[4] = Amoxicillin serum levels (LC/MS/MS) in dogs given oral amoxicillin with or without SYN-004; format: in vivo, dog; details: for amoxicillin serum levels (area under the curve), amoxicillin alone vs amoxicillin+SYN-004: amoxicillin 40 mg/kg/dose oral TID +/- SYN-004 10 mg capsule
Procedure: Amoxicillin serum levels were plotted for each group for each blood collection day as mean+standard deviation for each time point. Area under the curve was calculated for each group for each bleed day (day 1 and day 6) and were compared statistically using one-way ANOVA with Dunnett's multiple comparison tests (Graph Pad Prism 7.03 software).

[5] = ertapenem 30 mg/kg IV once a day; P2A 50 mg PO 4 times a day; expected result
Procedure: Animals (n=16, 8 animals per cohort) receive ertapenem (30 mg/kg/dose, IV, once a day for 4 days)+/−one capsule of P2A (50 mg, PO, 4 times a day). The P2A is started the day before antibiotic treatment and continues with one final dose the morning of day 5. […] Blood is collected on day 3 after 3 ertapenem doses. Blood is collected at 3 timepoints, 1 hr, 2 hrs, and 3 hrs after ertapenem.

Molecule | blaOXA genes (extended spectrum OXA class D beta-lactamases), level in fecal microbiome ([1]; Day 4) | change in the mean of relative gene frequencies of acrE, baeR, emrY, mdtD, mdtN, pbp2, pbp4, AmpC (FIG. 3) ([1]; Day −4 to Day 4) | mdtD gene levels ([1]; Day −4 to Day 4) | AmpC gene frequencies [1] | abundance of antibiotic resistance genes in the porcine gut microbiome (overall conclusion) [1] | Aminoglycoside_strA gene level (FIG. 4A) [1] | Tetracycline_tet39 gene level (FIG. 4B) [1] | abundance of antibiotic resistance genes in the canine gut microbiome (overall conclusion) [2] | change in the mean of relative gene frequencies of selected resistance genes (FIG. 9) ([2]; pretreatment to post treatment) | effect on microbiota populations in the GI tract (conclusion) [3] | position of post treatment fecal microbiomes in Principal Coordinate Analysis (Bray-Curtis, FIG. 7) [3] | also measured
CO/N=C(\C(=O)N[C@@H]1C(=O)N2C(C(=O)O)=C(CSc3nc(=O)c(=O)[nH]n3C)CS[C@H]12)c1csc(N)n1 [Ceftriaxone, reference compound] | present at high levels in two of five CRO animals | increased for each gene | doubled | continued to increase | increased the abundance of antibiotic resistance genes | detected at high levels in 4 of 5 animals | detected at high levels in 4 of 5 animals |  |  |  |  | blaCTX-M_82 or blaCFX_A4 genes (class A serine beta-lactamases), level in fecal microbiome ([1]; Day 4, CRO alone): detected at Day 4 at high levels in two of the CRO animals; abundance of antibiotic resistance genes in the fecal microbiome (heatmaps, FIG. 2A, 2B) ([1]; post-treatment Day 4, CRO 50 mg/kg IV 1x per day alone vs CRO+ribaxamase 75 mg oral QID): higher abundance of antibiotic resistance genes
CC1(C)S[C@@H]2[C@H](NC(=O)[C@H](N)c3ccc(O)cc3)C(=O)N2[C@H]1C(=O)O [amoxicillin] |  |  |  |  |  |  |  | increased the abundance of antibiotic resistance genes | increased for each gene | disrupts the microbiota populations in the GI tract | 4/5 post treatment samples were plotted far from the pretreatment cluster | abundance of antibiotic resistance genes, pretreatment to post treatment ([2]; amoxicillin alone compared to amoxicillin+SYN-004 cohort): higher abundance of antibiotic resistance genes post treatment; TEM and OXA beta-lactamase genes (e.g. TEM-113, OXA-136, FIG. 8), detection ([2]; not detected prior to amoxicillin exposure): detected only at day 6 in the amoxicillin alone cohort; marA gene levels ([2]; pretreatment to post treatment, amoxicillin alone): almost doubled
SYN-004: beta-lactamase with the amino acid sequence of SEQ ID NO: 1; D276N mutant of P1A | absent or observed at lower frequencies | decreased for each gene in the CRO+ribaxamase group except for pbp2 | reduced | decreased to levels similar to the Day −7 frequencies | attenuated this enrichment process | remained low or absent in all animals | only one animal in the CRO+ribaxamase cohort was identified with a high level | attenuated this enrichment process | decreased for each gene | can mitigate the damage caused by oral amoxicillin | also clustered with the pretreatment samples | amoxicillin serum levels (area under the curve), amoxicillin alone vs amoxicillin+SYN-004 ([4]; day 1, p=0.703): not significantly different; amoxicillin serum levels (area under the curve), amoxicillin alone vs amoxicillin+SYN-004 ([4]; day 6, p=0.098): not significantly different; interference with amoxicillin systemic absorption from the gastrointestinal tract ([4]; delayed release SYN-004 formulation, dog): did not interfere; marA gene levels, reduction ([2]; pretreatment to post treatment, amoxicillin+SYN-004 cohort): approximately 50%; antibiotic resistance gene frequencies in the presence of SYN-004 ([2]; with oral amoxicillin): reduced; pbp2 relative gene frequency change ([1]; Day −4 to Day 4, CRO+ribaxamase): increased only slightly above baseline; antibiotic resistance gene frequencies in the presence of ribaxamase ([1]; with ceftriaxone, vs pre-antibiotic treatment levels): reduced or maintained at pre-antibiotic treatment levels
B1 |  |  |  |  |  |  |  |  |  |  |  | ertapenem serum levels, ertapenem alone vs ertapenem+P2A [5]: not expected to be different
